This passage reports IC50 results from patent publication US9994558B2, “Multicyclic compounds and methods of using same” (Karyopharm Therapeutics Inc., priority 2013, dated 2018).

Type in all cases: cell-based
The subject of experiment [1] is MS751 cells. Nature of the experiment: MTT cell proliferation assay, MS751 cells. The note with it: Homo sapiens, incubation approximately 64-72 hours. As for the experimental part:
(§1) The MTT cell proliferation assay was used to study the cytotoxic properties of the compounds. The assay was performed according to the method described by Roche Molecular Biochemicals, with minor modifications. The assay is based on the cleavage of the tetrazolium salt, MTT, in the presence of an electron-coupling reagent. The water-insoluble formazan salt produced must be solubilized in an additional step. Cells grown in a 96-well tissue culture plate were incubated with the MTT solution for approximately 4 hours. After this incubation period, a water-insoluble formazan dye formed. After solubilization, the formazan dye was quantitated using a scanning multi-well spectrophotometer (ELISA reader). […] The cells were seeded at 5,000-10,000 cells in each well of 96-well plate in 100 μL of fresh culture medium and were allowed to attach overnight. The stock solutions of the compounds were diluted in 100 μL cell culture medium to obtain eight concentrations of each test compound, ranging from 1 nM to 30 μM. […] All optical densities were measured at 490 nm using a Vmax Kinetic Microplate Reader (Molecular Devices). In most cases, the assay was performed in duplicate and the results were presented as a mean percent inhibition to the negative control±SE. The following formula was used to calculate the percent of inhibition. Inhibition (%)=(1−(ODo/OD))×100.
(§2) The compounds were tested against MS751, Z138 and 3T3 cells. The MS751 cell line is derived from a metastasis to lymph node of human cervix from a patient diagnosed with squameous cell carcinoma of the cervix. The […] cell line is a mature B-cell acute lymphoblastic leukemia cell line derived from a patient with chronic lymphocytic leukemia. 3T3 cells are standard fibroblast cells; they were originally isolated from Swiss mouse embryo tissue.

The subject of experiment [2] is 3T3 cells. Nature of the experiment: MTT cell proliferation assay, 3T3 cells. The note with it: Mus musculus, NIH3T3; 3T3 fibroblast cells; incubation approximately 64-72 hours. The protocol: as §1, §2
(Tetrazolium dyes change colour on reduction, which living cells bring about.)

The test system of experiment [3] is Z138 cells. Nature of the experiment: MTT cell proliferation assay, Z138 cells. The note with it: Homo sapiens, Z-138, incubation approximately 64-72 hours. The protocol: as §1, §2

In general, IC50 refers to the midpoint of a concentration-inhibition curve. Consider `CC(=O)c1ccc(-c2ccc(OCCNC(=O)/C=C\c3cccnc3)c(Cl)c2)s1` [Compound 327, (Z)—N-(2-(4-(5-acetylthiophen-2-yl)-2-chlorophenoxy)ethyl)-3-(pyridin-3-yl)acrylamide], for which the IC50 in experiment [1] was 5 to 10 µM; in experiment [2] it was more than 10 µM; in experiment [3], 0.1 to 5 µM.
On the same counts, the results for `Nc1ccc(/C=C/C(=O)NCCOc2ccc(-c3cnc(C(=O)N4CCOCC4)nc3)cc2Cl)cn1` [Compound 328, (E)-3-(6-aminopyridin-3-yl)-N-(2-(2-chloro-4-(2-(morpholine-4-carbonyl)pyrimidin-5-yl)phenoxy)ethyl)acrylamide] are 0.1 to 5 µM, more than 10 µM and 0.1 to 5 µM.
For `CC(=O)c1ccc(-c2ccc(OCCN(C)C(=O)/C=C/c3cccnc3)c(Cl)c2)s1` [Compound 311, (E)-N-(2-(4-(5-acetylthiophen-2-yl)-2-chlorophenoxy)ethyl)-N-methyl-3-(pyridin-3-yl)acrylamide], the IC50 in experiment [1], in experiment [2] and in experiment [3] was 0.1 to 5 µM throughout.
In the case of `Nc1ccc(/C=C/C(=O)NCC(F)(F)COc2ccc(-c3ccc(C(=O)N4CCOCC4)cc3)cc2Cl)cn1` [Compound 349, (E)-3-(6-aminopyridin-3-yl)-N-(3-(3-chloro-4′-(morpholine-4-carbonyl)biphenyl-4-yloxy)-2,2-difluoropropyl)acrylamide], the half-maximal inhibitory concentration (IC50) in experiment [1] was less than 0.1 µM; in experiment [2], 0.1 to 5 µM; in experiment [3], less than 0.1 µM.
Regarding `CC(=O)c1ccc(-c2cccc(OCCNC(=O)/C=C/c3cccnc3)c2Cl)s1` [Compound 302, (E)-N-(2-(3-(5-acetylthiophen-2-yl)-2-chlorophenoxy)ethyl)-3-(pyridin-3-yl) acrylamide], the IC50 was less than 0.1 µM in experiment [1], 0.1 to 5 µM in experiment [2] and 0.1 to 5 µM in experiment [3].
In the case of `CC(=O)c1ccc(-c2ccc(OCCNC(=O)/C=C/c3ccc(N)nc3)c(Cl)n2)s1` [Compound 330, (E)-N-(2-(6-(5-acetylthiophen-2-yl)-2-chloropyridin-3-yloxy)ethyl)-3-(6-aminopyridin-3-yl)acrylamide], the 50% inhibitory concentration (IC50) is 0.1 to 5 µM in experiment [1], more than 10 µM in experiment [2] and 0.1 to 5 µM in experiment [3].
Take `CC(O)c1ccc(-c2ccc(OCCNC(=O)/C=C/c3cccnc3)c(Cl)c2)s1` (stereo not drawn) [Compound 301, (E)-N-(2-(2-chloro-4-(5-(1-hydroxyethyl)thiophen-2-yl)phenoxy)ethyl)-3-(pyridin-3-yl) acrylamide]: the IC50 in experiment [1] was less than 0.1 µM; in experiment [2], 0.1 to 5 µM; in experiment [3], 0.1 to 5 µM.
For `CC(=O)c1ccc(-c2ccc(OCCNC(=O)CCc3cccnc3)c(Cl)c2)s1` [Compound 306, N-(2-(4-(5-acetylthiophen-2-yl)-2-chlorophenoxy)ethyl)-3-(pyridin-3-yl)propanamide], the IC50 in experiment [1] was 5 to 10 µM; in experiment [2], more than 10 µM; in experiment [3], more than 10 µM.
For the compound `CC(C)(CNC(=O)/C=C/c1ccc(N)nc1)COc1ccc(-c2ccc(C(=O)N3CCOCC3)cc2)cc1Cl` [Compound 350, (E)-3-(6-Aminopyridin-3-yl)-N-(3-((3-chloro-4′-(morpholine-4-carbonyl)-[1,1′-biphenyl]-4-yl)oxy)-2,2-dimethylpropyl)acrylamide], the half-maximal inhibitory concentration (IC50) in experiment [1] is 0.1 to 5 µM; in experiment [2], 0.1 to 5 µM; in experiment [3] it was less than 0.1 µM.
In the case of `CC(=O)c1ccc(-c2ccc(OCCNC(=O)/C=C/c3ccc(N)nc3)c(Cl)c2)s1` [Compound 308, (E)-N-(2-(4-(5-acetylthiophen-2-yl)-2-chlorophenoxy)ethyl)-3-(6-aminopyridin-3-yl) acrylamide], the values for the IC50 in experiment [1], in experiment [2] and in experiment [3] were 0.1 to 5 µM, more than 10 µM and 0.1 to 5 µM, respectively.
Regarding `Nc1ccc(/C=C/C(=O)NCCOc2cc(Cl)cc(-c3ccc(C(=O)N4CCOCC4)cc3)c2)cn1` [Compound 344, (E)-3-(6-aminopyridin-3-yl)-N-(2-(5-chloro-4′-(morpholine-4-carbonyl)biphenyl-3-yloxy)ethyl)acrylamide], the IC50 in experiment [1] is less than 0.1 µM; in experiment [2] it was 0.1 to 5 µM; in experiment [3] it was less than 0.1 µM.
On to `Nc1ccc(/C=C/C(=O)NCCOc2ccc(-c3cccc(C(=O)N4CCOCC4)c3)cc2Cl)cn1` [Compound 317, (E)-3-(6-aminopyridin-3-yl)-N-(2-(3-chloro-3′-(morpholine-4-carbonyl)biphenyl-4-yloxy)ethyl)acrylamide], for which the IC50 in experiment [1] is less than 0.1 µM; in experiment [2], more than 10 µM; in experiment [3], less than 0.1 µM.
Regarding `CC(=O)c1ccc(-c2ccc(OCCNC(=O)/C=C/c3cccnc3Cl)c(Cl)c2)s1` [Compound 304, (E)-N-(2-(4-(5-acetylthiophen-2-yl)-2-chlorophenoxy)ethyl)-3-(2-chloropyridin-3-yl) acrylamide], the IC50 in experiment [1] is 5 to 10 µM; in experiment [2], more than 10 µM; in experiment [3], more than 10 µM.
On to `C=C(C)c1ccc(-c2ccc(OCCNC(=O)/C=C/c3cccnc3)c(Cl)c2)s1` [Compound 315, (E)-N-(2-(2-chloro-4-(5-(prop-1-en-2-yl)thiophen-2-yl)phenoxy)ethyl)-3-(pyridin-3-yl)acrylamide], for which the half-maximal inhibitory concentration (IC50) in experiment [1] was 5 to 10 µM; in experiment [2], 5 to 10 µM; in experiment [3], 0.1 to 5 µM.
For `Nc1ccc(/C=C/C(=O)NCCOc2ccc(-c3ccc(C(=O)N4CCOCC4)nc3)cc2Cl)cn1` [Compound 321, (E)-3-(6-aminopyridin-3-yl)-N-(2-(2-chloro-4-(6-(morpholine-4-carbonyl)pyridin-3-yl)phenoxy)ethyl)acrylamide], the values for the IC50 in experiment [1], in experiment [2] and in experiment [3] were less than 0.1 µM, more than 10 µM and less than 0.1 µM, respectively.
Turning to `CC(C)(O)c1ccc(-c2ccc(OCCNC(=O)/C=C/c3ccc(N)nc3)c(Cl)c2)s1` [Compound 319, (E)-3-(6-aminopyridin-3-yl)-N-(2-(2-chloro-4-(5-(2-hydroxypropan-2-yl)thiophen-2-yl)phenoxy)ethyl)acrylamide], the IC50 was 0.1 to 5 µM in experiment [1], more than 10 µM in experiment [2] and 0.1 to 5 µM in experiment [3].
Turning to `CC(=O)c1ccc(-c2cnc(OCCNC(=O)/C=C/c3ccc(N)nc3)c(Cl)c2)s1` [Compound 331, (E)-N-(2-(5-(5-acetylthiophen-2-yl)-3-chloropyridin-2-yloxy)ethyl)-3-(6-aminopyridin-3-yl)acrylamide], the IC50 in experiment [1], in experiment [2] and in experiment [3] was more than 10 µM each time.
Take `Nc1ccc(/C=C/C(=O)NCCCOc2cc(Cl)cc(-c3ccc(C(=O)N4CCOCC4)cc3)c2)cn1` [Compound 345, (E)-3-(6-aminopyridin-3-yl)-N-(3-(5-chloro-4′-(morpholine-4-carbonyl)biphenyl-3-yloxy)propyl)acrylamide]: the IC50 is less than 0.1 µM in experiment [1], 0.1 to 5 µM in experiment [2] and less than 0.1 µM in experiment [3].
Take `Nc1ccc(/C=C/C(=O)NCCOc2cc(Cl)cc(-c3ccc(C(=O)N4CC(F)(F)C4)cc3)c2)cn1` [Compound 332, (E)-3-(6-aminopyridin-3-yl)-N-(2-(5-chloro-4′-(3,3-difluoroazetidine-1-carbonyl)biphenyl-3-yloxy)ethyl)acrylamide]: the values for the IC50 in experiment [1], in experiment [2] and in experiment [3] were less than 0.1 µM, 0.1 to 5 µM and less than 0.1 µM, respectively.
Turning to `CC(=O)c1ccc(-c2ccc(OC(C)(C)CNC(=O)/C=C/c3cccnc3)c(Cl)c2)s1` [Compound 323, (E)-N-(2-(4-(5-acetylthiophen-2-yl)-2-chlorophenoxy)-2-methylpropyl)-3-(pyridin-3-yl)acrylamide], the half-inhibitory concentration (IC50) is 5 to 10 µM in experiment [1], more than 10 µM in experiment [2] and 0.1 to 5 µM in experiment [3].
With `CC(=O)c1ccc(-c2ccc(OCCNC(=O)/C=C/c3cccnn3)c(Cl)c2)s1` [Compound 310, (E)-N-(2-(4-(5-acetylthiophen-2-yl)-2-chlorophenoxy)ethyl)-3-(pyridazin-3-yl)acrylamide], the IC50 in experiment [1], in experiment [2] and in experiment [3] was more than 10 µM each time.
Consider `CC(=O)c1ccc(-c2ccc(OCCNC(=O)/C=C/c3cccnc3)c(Cl)c2)s1` [Compound 300, (E)-N-(2-(4-(5-acetylthiophen-2-yl)-2-chlorophenoxy)ethyl)-3-(pyridin-3-yl)acrylamide], for which the values for the IC50 in experiment [1], in experiment [2] and in experiment [3] were 0.1 to 5 µM, more than 10 µM and 0.1 to 5 µM, respectively.
For the compound `Nc1ccc(CNC(=O)/C=C\COc2ccc(-c3ccc(C(=O)N4CCC(F)(F)CC4)cn3)cc2C(F)(F)F)cn1` [Compound 354, (Z)—N-((6-aminopyridin-3-yl)methyl)-4-(4-(5-(4,4-difluoropiperidine-1-carbonyl)pyridin-2-yl)-2-(trifluoromethyl)phenoxy)but-2-enamide], the IC50 in experiment [1], in experiment [2] and in experiment [3] was more than 10 µM in each case.
